ChEMBL document CHEMBL5046316, “Structure-Based Optimization of a Fragment-like TLR8 Binding Screening Hit to an In Vivo Efficacious TLR7/8 Antagonist” (ACS Med Chem Lett, 2022)

How the values were obtained:
[1] = Dissociation constant, pKa of the compound by UV spectrometric titration method; type: physicochemical
Toll-like receptor 4 [2] = target: T1, Toll-like receptor 4 (Homo sapiens, UniProt O00206); assay: Antagonist activity at human TLR4 expressed in human whole blood assessed as inhibition of LPS stimulated TNF level preincubated for 30 mins followed by stimulation and measured after 20 hrs by multiplate reader assay; type: tissue-based
[3] = Dose normalized AUC in Balb/c mouse at 10 mg/kg, po and 1 mg/kg,iv administered as cassette dose measured upto 24 hrs by LC/MS/MS analysis; type: ADME, organism-based; parameters: dose 10 mg/kg, time <=24; details: in vivo
[4] = Volume of distribution at steady state in Balb/c mouse at 10 mg/kg, po or 1 mg/kg, iv administered as cassette dose measured upto 24 hrs by LC/MS/MS analysis; type: ADME, organism-based; details: in vivo, read-out: Vdss
Toll-like receptor 4 [5] = target: T1, Toll-like receptor 4; assay: Antagonist activity at human TLR4 expressed in human PBMC cells assessed as inhibition of LPS stimulated TNF level preincubated for 30 mins followed by stimulation and measured after 20 hrs by multiplate reader assay; type: cell-based
[6] = Drug exposure in 129Sv mouse blood at 3 mg/kg, po by LC-MS/MS analysis; type: ADME, organism-based; details: in vivo, read-out: Drug uptake
Cytochrome P450 3A4 = Cytochrome P450 3A4 (Homo sapiens, UniProt P08684); assay: Inhibition of CYP3A4 (unknown origin); type: ADME
Toll-like receptor 7 [7] = target: T2, Toll-like receptor 7 (Homo sapiens, UniProt Q9NYK1); assay: Antagonist activity at human TLR7 expressed in human PBMC cells assessed as inhibition of ssRNA stimulated IFNalpha level preincubated for 30 mins followed by stimulation and measured after 20 hrs by AlphaLISA method; type: cell-based
T2 sequence (Q9NYK1 whole entry): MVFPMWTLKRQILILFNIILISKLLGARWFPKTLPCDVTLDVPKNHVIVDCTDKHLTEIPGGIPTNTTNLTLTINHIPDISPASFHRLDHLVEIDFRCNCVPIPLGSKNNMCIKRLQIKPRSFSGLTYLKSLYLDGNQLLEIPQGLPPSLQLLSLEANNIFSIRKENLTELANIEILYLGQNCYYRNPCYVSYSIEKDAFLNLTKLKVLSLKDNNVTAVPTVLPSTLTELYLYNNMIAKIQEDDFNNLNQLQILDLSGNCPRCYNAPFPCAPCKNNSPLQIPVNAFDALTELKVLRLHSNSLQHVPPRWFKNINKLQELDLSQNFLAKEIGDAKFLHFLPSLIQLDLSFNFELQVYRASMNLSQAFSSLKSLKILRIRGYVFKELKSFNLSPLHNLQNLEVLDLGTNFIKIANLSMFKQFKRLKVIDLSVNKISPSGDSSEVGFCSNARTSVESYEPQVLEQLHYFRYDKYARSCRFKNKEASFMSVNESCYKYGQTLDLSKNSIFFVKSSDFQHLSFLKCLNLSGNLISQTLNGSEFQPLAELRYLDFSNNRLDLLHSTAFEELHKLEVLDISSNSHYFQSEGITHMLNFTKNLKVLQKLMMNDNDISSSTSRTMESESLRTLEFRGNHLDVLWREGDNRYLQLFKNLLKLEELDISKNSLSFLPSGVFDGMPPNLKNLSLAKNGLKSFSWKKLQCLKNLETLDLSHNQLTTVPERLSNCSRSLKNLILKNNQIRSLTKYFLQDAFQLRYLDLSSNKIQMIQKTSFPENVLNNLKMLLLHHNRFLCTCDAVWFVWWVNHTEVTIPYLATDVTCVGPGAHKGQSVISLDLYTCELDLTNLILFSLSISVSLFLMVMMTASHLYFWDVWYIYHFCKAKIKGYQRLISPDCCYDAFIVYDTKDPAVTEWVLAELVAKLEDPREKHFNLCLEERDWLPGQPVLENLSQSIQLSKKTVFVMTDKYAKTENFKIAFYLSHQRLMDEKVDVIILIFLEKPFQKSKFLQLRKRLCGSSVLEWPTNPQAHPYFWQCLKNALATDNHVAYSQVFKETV

[8] = target: Voltage-gated inwardly rectifying potassium channel KCNH2 (Homo sapiens, UniProt Q12809); assay: Inhibition of human ERG; type: toxicity
[9] = Drug exposure in 129Sv mouse blood at 0.1 mg/kg, po by LC-MS/MS analysis; type: ADME, organism-based; details: in vivo, read-out: Drug uptake
[10] = Drug exposure in 129Sv mouse blood at 0.3 mg/kg, po by LC-MS/MS analysis; type: ADME, organism-based; details: in vivo, read-out: Drug uptake
[11] = Drug exposure in 129Sv mouse blood at 1 mg/kg, po by LC-MS/MS analysis; type: ADME, organism-based; details: in vivo, read-out: Drug uptake
Toll-like receptor 7 [12] = target: T3, Toll-like receptor 7 (Mus musculus, UniProt P58681); assay: Antagonist activity at mouse TLR7 expressed in human PBMC cells assessed as inhibition of ssRNA stimulated IFNalpha level preincubated for 30 mins followed by stimulation and measured after 20 hrs by AlphaLISA method; type: cell-based
T3 sequence (P58681 whole entry): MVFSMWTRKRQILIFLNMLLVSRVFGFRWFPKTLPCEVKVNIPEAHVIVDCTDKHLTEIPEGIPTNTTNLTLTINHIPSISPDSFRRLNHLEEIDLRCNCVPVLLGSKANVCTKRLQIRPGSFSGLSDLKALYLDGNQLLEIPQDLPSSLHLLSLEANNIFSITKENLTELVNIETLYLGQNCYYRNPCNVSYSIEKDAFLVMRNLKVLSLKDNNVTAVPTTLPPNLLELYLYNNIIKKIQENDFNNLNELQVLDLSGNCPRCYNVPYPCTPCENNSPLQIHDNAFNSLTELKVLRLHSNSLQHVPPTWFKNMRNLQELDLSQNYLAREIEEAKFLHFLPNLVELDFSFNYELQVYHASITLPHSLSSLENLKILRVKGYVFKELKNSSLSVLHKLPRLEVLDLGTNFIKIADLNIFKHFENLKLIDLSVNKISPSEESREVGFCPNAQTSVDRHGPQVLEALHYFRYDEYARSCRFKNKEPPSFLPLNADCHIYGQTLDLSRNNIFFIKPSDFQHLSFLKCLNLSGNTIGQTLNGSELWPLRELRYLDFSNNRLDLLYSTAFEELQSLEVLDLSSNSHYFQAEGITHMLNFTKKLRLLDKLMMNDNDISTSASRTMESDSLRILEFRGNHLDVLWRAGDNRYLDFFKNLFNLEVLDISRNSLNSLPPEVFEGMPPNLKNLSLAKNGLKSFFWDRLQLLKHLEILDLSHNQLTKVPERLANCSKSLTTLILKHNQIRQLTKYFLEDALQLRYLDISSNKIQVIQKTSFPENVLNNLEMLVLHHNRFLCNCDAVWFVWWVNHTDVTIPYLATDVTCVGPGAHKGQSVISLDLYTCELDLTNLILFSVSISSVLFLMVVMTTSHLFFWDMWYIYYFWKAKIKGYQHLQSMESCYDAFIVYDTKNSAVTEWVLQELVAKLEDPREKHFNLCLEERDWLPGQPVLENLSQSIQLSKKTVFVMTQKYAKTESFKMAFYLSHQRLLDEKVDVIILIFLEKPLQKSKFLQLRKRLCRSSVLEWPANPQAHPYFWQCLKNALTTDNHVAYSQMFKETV

Toll-like receptor 7 [13] = target: T2, Toll-like receptor 7; assay: Antagonist activity at human TLR7 expressed in human whole blood assessed as inhibition of ssRNA stimulated IFNalpha level preincubated for 30 mins followed by stimulation and measured after 20 hrs by AlphaLISA method; type: tissue-based

T1 sequence (O00206 whole entry): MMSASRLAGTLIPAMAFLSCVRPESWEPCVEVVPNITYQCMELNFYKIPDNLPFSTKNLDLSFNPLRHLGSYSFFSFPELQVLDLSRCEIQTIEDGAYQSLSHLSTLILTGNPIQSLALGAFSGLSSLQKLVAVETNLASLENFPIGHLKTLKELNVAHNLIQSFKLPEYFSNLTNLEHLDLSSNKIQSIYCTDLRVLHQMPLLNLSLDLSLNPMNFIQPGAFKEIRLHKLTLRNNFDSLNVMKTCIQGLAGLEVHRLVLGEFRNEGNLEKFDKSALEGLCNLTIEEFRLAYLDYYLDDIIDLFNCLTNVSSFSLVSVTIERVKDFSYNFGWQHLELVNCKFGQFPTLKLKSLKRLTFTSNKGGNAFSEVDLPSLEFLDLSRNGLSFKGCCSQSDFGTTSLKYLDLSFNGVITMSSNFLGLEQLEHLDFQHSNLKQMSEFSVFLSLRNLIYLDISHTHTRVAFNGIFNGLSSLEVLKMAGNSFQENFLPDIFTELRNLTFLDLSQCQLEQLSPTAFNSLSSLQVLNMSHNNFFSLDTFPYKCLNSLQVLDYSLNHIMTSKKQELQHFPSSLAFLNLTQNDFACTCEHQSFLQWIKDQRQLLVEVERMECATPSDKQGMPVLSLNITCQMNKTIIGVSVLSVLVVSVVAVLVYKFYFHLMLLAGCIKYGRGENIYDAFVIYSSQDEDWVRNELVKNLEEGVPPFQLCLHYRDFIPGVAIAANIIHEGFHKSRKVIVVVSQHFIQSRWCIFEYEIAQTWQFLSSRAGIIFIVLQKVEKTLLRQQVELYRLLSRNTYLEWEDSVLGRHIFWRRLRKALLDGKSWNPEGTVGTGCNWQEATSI
Voltage-gated inwardly rectifying potassium channel KCNH2, sequence (Q12809 whole entry): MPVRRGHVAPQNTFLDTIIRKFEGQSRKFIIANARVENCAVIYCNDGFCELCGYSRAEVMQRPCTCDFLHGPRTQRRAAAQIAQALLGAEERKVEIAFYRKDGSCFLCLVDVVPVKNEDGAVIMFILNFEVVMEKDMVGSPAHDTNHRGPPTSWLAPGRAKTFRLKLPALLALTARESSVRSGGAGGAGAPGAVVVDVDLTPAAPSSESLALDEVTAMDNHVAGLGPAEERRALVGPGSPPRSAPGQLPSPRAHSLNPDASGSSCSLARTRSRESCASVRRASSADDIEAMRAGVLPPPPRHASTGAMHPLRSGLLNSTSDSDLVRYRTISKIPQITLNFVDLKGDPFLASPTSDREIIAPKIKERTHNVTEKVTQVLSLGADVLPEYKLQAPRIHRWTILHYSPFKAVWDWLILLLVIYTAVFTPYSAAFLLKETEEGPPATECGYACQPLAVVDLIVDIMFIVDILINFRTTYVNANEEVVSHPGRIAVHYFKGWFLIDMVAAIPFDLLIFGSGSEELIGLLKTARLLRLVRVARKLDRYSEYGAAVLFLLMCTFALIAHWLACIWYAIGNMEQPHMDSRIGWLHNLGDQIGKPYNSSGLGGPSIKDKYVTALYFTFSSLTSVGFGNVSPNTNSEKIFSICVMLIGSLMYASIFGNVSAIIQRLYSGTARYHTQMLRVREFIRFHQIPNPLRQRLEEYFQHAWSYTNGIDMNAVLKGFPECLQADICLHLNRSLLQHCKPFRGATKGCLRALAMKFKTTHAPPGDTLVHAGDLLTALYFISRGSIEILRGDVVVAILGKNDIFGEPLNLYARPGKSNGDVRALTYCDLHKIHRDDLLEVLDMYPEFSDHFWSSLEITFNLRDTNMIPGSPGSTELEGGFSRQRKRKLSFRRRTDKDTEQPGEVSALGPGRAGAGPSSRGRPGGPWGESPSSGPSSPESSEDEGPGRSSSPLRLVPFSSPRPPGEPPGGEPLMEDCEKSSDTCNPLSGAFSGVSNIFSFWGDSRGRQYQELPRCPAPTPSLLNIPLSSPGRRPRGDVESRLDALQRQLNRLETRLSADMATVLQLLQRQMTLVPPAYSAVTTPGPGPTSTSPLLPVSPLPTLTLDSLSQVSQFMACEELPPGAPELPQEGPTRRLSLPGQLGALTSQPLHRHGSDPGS
Cytochrome P450 3A4, sequence (P08684 whole entry): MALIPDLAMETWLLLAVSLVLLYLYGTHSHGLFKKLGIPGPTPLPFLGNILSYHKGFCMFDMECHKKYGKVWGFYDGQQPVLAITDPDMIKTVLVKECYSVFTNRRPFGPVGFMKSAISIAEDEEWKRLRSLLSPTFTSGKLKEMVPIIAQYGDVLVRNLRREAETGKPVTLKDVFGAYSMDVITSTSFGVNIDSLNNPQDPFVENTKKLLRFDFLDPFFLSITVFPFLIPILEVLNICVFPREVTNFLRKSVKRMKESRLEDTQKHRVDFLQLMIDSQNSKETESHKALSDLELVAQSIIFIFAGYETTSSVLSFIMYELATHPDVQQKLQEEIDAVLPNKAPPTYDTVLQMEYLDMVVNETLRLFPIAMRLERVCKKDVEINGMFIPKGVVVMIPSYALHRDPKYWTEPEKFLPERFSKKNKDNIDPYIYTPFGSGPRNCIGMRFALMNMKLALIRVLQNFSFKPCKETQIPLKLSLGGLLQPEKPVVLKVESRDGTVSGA

pKa [1]: 6.7
IC50 (Toll-like receptor 4 [2]): > 10 µM
AUC [3]: 304 nM·h/mg/kg
Vd [4]: 8.4 L/kg
IC50 (Toll-like receptor 4 [5]): > 8 µM
concentration [6]: 110 nM
IC50 (Cytochrome P450 3A4): > 25 µM
IC50 (Toll-like receptor 7 [7]): 0.007 µM
concentration [9]: 0.4 nM
concentration [10]: 1.3 nM
concentration [11]: 8 nM
IC50 (Toll-like receptor 7 [12]): Not Active
IC50 (Toll-like receptor 7 [13]): 0.0049 µM
Structure (SMILES): Cc1cc(-c2cc3[nH]nc(N[C@@H]4CCNC[C@H]4F)c3cc2C2CC2)cc(C)n1
IC50 [8]: > 30 µM
